Experiments:
Assay type in all cases: cell-based
[1] = system: CCRF-CEM cancer cells - leukaemia; experiment: Fluorometric Microculture Cytotoxicity Assay (FMCA), CCRF-CEM; conditions: Homo sapiens, 72 h incubation
Description: (§1) The Fluorometric Microculture Cytotoxicity Assay, FMCA, is a three day non-clonogenic microplate-based cell viability assay used for measurement of the cytotoxic and/or cytostatic effect of compounds in vitro (Lindhagen, E., et al. Nat Protoc, 2008. 3(8): p. 1364-9). FMCA (Larsson, R. and P. Nygren, Anticancer Res, 1989. 9(4): p. 1111-9) represents a valuable method to measure cytotoxicity in a number of cell types, both cell lines and primary cells from patients (Larsson, R., et al., Int J Cancer, 1992. 50(2): p. 177-85; Fridborg, H., et al., Eur J Cancer, 1999. 35(3): p. 424-32; Dhar, S., et al., Br J Cancer, 1996. 74(6): p. 888-96).
(§2) FMCA is based on the principle that fluorescein diacetate (FDA) is converted to the fluorescent probe fluorescein by esterases in the plasma membranes of living cells. For experiments, 96 or 384-well microplates are prepared with compounds and stored at −70° C. until use. Cells are then seeded into the drug-prepared plates and placed in an incubator for 72 h. On the last day of incubation, the plates are washed and a buffer containing FDA is added and incubated with the cells for 45 minutes. Finally the fluorescence per well is measured in a fluorometer and a Survival Index % (SI) for each compound-treated well is calculated with the equation: Compound-treated cells minus blank divided by control cells minus blank. A high SI-value indicates a large percentage of living cells and vice versa.
In subsequent experiments, compounds were tested, along with kinase inhibitors (dasatinib, pazopanib, sorafenib, and sunitinib) as described above. Initially, the acute lymphoblastic leukaemia cell line CCRF-CEM (see e.g. Foley G E, et al. Cancer 1965, 18, 522-529) was used throughout. In the assay plates, medium was added to six empty wells (blank wells) and wells were filled with PBS and cell suspension and served as control wells. SI-values were then calculated for each compound-treated well as described above. All experiments were conducted twice and a new batch of plates was prepared for each experiment.
For dose-response experiments, 384-well plates were prepared as follows:
(§3) Compounds of the invention as well as kinase inhibitors sorafenib, sunitinib, dasatinib, and pazopanib (reference compounds) were diluted with PBS to a concentration which was ten-times higher than the desired starting concentration. Then, a Biomek 2000 liquid handling system was employed to serially dilute the compounds in a deep-well 384-well plate. From this plate, assay plates containing 5 μl compound per well were prepared with the Biomek 2000. Certain compounds precipitated when diluted with PBS, and these compounds were therefore prepared in a 96-well plate manually as described above using culture medium RPMI 1640 instead of PBS.
(§4) The compounds were also tested at five concentrations, with five times serial dilution on the following cell types: CCRF-CEM, hTERT-RPE1 (normal retinal epithelial cells), hRPTEpiC (normal renal cells) and PBMC (peripheral blood mononuclear cells). Each experiment was performed three times, except for PBMC and hRPTEpiC, which were performed twice. SI-values were calculated, graphs were plotted using GraphPadPrism 5.0 (GraphPad Software Inc. La Jolla, Calif.) and EC50-values for each cell type and compound were determined from the curves.

HCT116 = experiment: FMCA, HCT116 colon cancer; conditions: Homo sapiens, HCT-116, read-out: EC50 (μM) in various cancer cell lines: HCT116
Description: as §1, §2, §3, §4
(§5) The compounds of the invention were also tested on further cancer cell lines related to colon cancer (HCT116; see e.g Brattain M G, et al. Cancer Res. 1981, 41, 1751-1756), breast cancer (MCF7; see e.g. Soule H D, et al. J. Natl. Cancer Inst. 1973, 51, 1409-1416), teniposide-resistant leukaemia (CEM/VM1; see e.g. Danks M K et al. Cancer Res. 1987, 47, 1297-1301), lung cancer (H69; see e.g. Gazdar A F, et al. Cancer Res. 1980, 40, 3502-3507), doxorubicin-resistant lung cancer (H69AR; see e.g. Mirski S E, et al. Cancer Res. 1987, 47, 2594-2598), myeloma (RPMI 8226; see e.g. Matsuoka Y, et al. Proc. Soc. Exp. Biol. Med. 1967, 125, 1246-1250), doxorubicin-resistant myeloma (8226/Dox40; see e.g. Dalton W S et al. Blood 1989, 15,747-752), lymphoma (U-937, see e.g. Sundstrom C, et al. Int. J. Cancer 1976, 17, 565-577), vincristin-resistant lymphoma (U-937-vcr; see e.g. Botling J, et al. Int J Cancer 1994, 15; 58 (2), 269-274), ovarian cancer (A2780; see e.g. Hamilton T C, et al. Semin Oncol. 1984, 11, 285-298), doxorubicin-resistant ovarian cancer (A2780/Adr), cisplatin-resistant ovarian cancer (A2780/Cis; see e.g. Behrens B C, et al. Cancer Res. 1987, 47, 414-418), renal cancer (ACHN; see e.g. Borden E C, et al. Cancer Res. 1982, 42(12), 4948-4953), pancreatic cancer (PANC-1, BxPC-3, and MIA PaCa-2; see e.g. Lieber M, et al. Int. […]

MCF7 = experiment: FMCA, MCF7 breast cancer; conditions: Homo sapiens, read-out: EC50 (μM) in various cancer cell lines: MCF7
Description: as §1, §2, §3, §4, §5

CEM/VM1 = experiment: FMCA, CEM/VM1 teniposide-resistant leukaemia; conditions: Homo sapiens, read-out: EC50 (μM) in various cancer cell lines: CEM/VM1
Description: as §1, §2, §3, §4, §5

H69 = experiment: FMCA, H69 lung cancer; conditions: Homo sapiens, NCI-H69, read-out: EC50 (μM) in various cancer cell lines: H69
Description: as §1, §2, §3, §4, §5

H69AR = experiment: FMCA, H69AR doxorubicin-resistant lung cancer; conditions: Homo sapiens, read-out: EC50 (μM) in various cancer cell lines: H69 AR
Description: as §1, §2, §3, §4, §5

RPMI 8226 = experiment: FMCA, RPMI 8226 myeloma; conditions: Homo sapiens, read-out: EC50 (μM) in various cancer cell lines: RPMI 8226
Description: as §1, §2, §3, §4, §5

8226/Dox40 = experiment: FMCA, 8226/Dox40 doxorubicin-resistant myeloma; conditions: read-out: EC50 (μM) in various cancer cell lines: 8226/Dox40
Description: as §1, §2, §3, §4, §5

ACHN = experiment: FMCA, ACHN renal cancer; conditions: Homo sapiens, read-out: EC50 (μM) in various cancer cell lines: ACHN
Description: as §1, §2, §3, §4, §5

U-937 = experiment: FMCA, U-937 lymphoma; conditions: Homo sapiens, read-out: EC50 (μM) in various cancer cell lines: U-937
Description: as §1, §2, §3, §4, §5

U-937-vcr = experiment: FMCA, U-937-vcr vincristin-resistant lymphoma; conditions: read-out: EC50 (μM) in various cancer cell lines: U-937-ver
Description: as §1, §2, §3, §4, §5

A2780 = experiment: FMCA, A2780 ovarian cancer; conditions: Homo sapiens, read-out: EC50 (μM) in various cancer cell lines: A2780
Description: as §1, §2, §3, §4, §5

A2780/Adr = experiment: FMCA, A2780/Adr doxorubicin-resistant ovarian cancer; conditions: read-out: EC50 (μM) in various cancer cell lines: A2780/Adr
Description: as §1, §2, §3, §4
(§6) The compounds of the invention were also tested on further cancer cell lines related to colon cancer (HCT116; see e.g Brattain M G, et al. Cancer Res. 1981, 41, 1751-1756), breast cancer (MCF7; see e.g. Soule H D, et al. J. Natl. Cancer Inst. 1973, 51, 1409-1416), teniposide-resistant leukaemia (CEM/VM1; see e.g. Danks M K et al. Cancer Res. 1987, 47, 1297-1301), lung cancer (H69; see e.g. Gazdar A F, et al. Cancer Res. 1980, 40, 3502-3507), doxorubicin-resistant lung cancer (H69AR; see e.g. Mirski S E, et al. Cancer Res. 1987, 47, 2594-2598), myeloma (RPMI 8226; see e.g. Matsuoka Y, et al. Proc. Soc. Exp. Biol. Med. 1967, 125, 1246-1250), doxorubicin-resistant myeloma (8226/Dox40; see e.g. Dalton W S et al. Blood 1989, 15,747-752), lymphoma (U-937, see e.g. Sundstrom C, et al. Int. […]

A2780/Cis = experiment: FMCA, A2780/Cis cisplatin-resistant ovarian cancer; conditions: A2780cis, read-out: EC50 (μM) in various cancer cell lines: A2780/Cis
Description: as §1, §2, §3, §4, §6

Row | Compound | EC50 [1] [nM] | EC50 (HCT116) [µM] | EC50 (MCF7) [µM] | EC50 (CEM/VM1) [µM] | EC50 (H69) [µM] | EC50 (H69AR) [µM] | EC50 (RPMI 8226) [µM] | EC50 (8226/Dox40) [µM] | EC50 (ACHN) [µM] | EC50 (U-937) [µM] | EC50 (U-937-vcr) [µM] | EC50 (A2780) [µM] | EC50 (A2780/Adr) [µM] | EC50 (A2780/Cis) [µM]
1 | COc1ccc2[nH]cc(CCNc3nc(C)cc(NCc4ccc5[nH]ccc5c4)n3)c2c1 [Example 84, N^4-(1H-indol-5-ylmethyl)-N^2-[2-(5-methoxy-1H-indol-3-yl)ethyl]-6-methylpyrimidine-2,4-diamine] | 40 | 1.16 | 2.06 | 0.19 | 5.47 | 0.35 | 0.45 | 2.58 | 1.62 | 0.21 | 0.27 | 0.33 |  | 
2 | Cc1cc2cc(Nc3ccnc(NCc4ccc5[nH]cnc5c4)n3)ccc2[nH]1 [Example 67, N^2-(1H-benzo[d]imidazol-5-ylmethyl)-N^4-(2-methyl-1H-indol-5-yl)pyrimidine-2,4-diamine] | 210 | 2.47 | 12.4 | 0.33 | 37.2 | 0.71 | 5.01 | 24.4 | 5.43 | 0.22 | 1.74 | 1.37 |  | 
3 | c1cc(Nc2nccc(NCc3ccc4[nH]ccc4c3)n2)c2cc[nH]c2c1 [Example 1, N^4-(1H-indol-5-ylmethyl)-N^2-(1H-indol-4-yl)pyrimidine-2,4-diamine] | 330 | 6.7 | 9 | 0.12 | 10.8 |  | 0.5 | 0.37 | 2.54 | 0.07 | 0.07 | 0.7 | 2.4 | 0.35
4 | COc1ccc2[nH]cc(CCNc3nccc(NCc4ccc5[nH]ncc5c4)n3)c2c1 [Example 66, N^4-(1H-indazol-5-ylmethyl)-N^2-[2-(5-methoxy-1H-indol-3-yl)ethyl]pyrimidine-2,4-diamine] | 210 | 2.45 | 3.35 | 0.27 | 11.6 | 0.64 | 1.83 | 10 | 3.32 | 0.35 | 0.99 | 0.78 |  | 
5 | c1cc(Nc2nccc(NCc3ccc4[nH]ccc4c3)n2)c2cn[nH]c2c1 [Example 76, N^4-(1H-indol-5-ylmethyl)-N^2-(1H-indazol-4-yl)pyrimidine-2,4-diamine] | 230 | 3.09 | 3.08 | 0.22 | 12.7 | 0.34 | 0.7 | 1.1 | 1.59 | 0.19 | 0.4 | 0.34 |  | 
6 | COc1ccc2[nH]cc(CCNc3nccc(NCc4ccc5[nH]c(C)cc5c4)n3)c2c1 [Example 64, N^2-[2-(5-methoxy-1H-indol-3-yl)ethyl]-N^4-(2-methyl-1H-indol-5-ylmethyl)pyrimidine-2,4-diamine] | 50 | 1.33 | 2.33 | 0.05 | 4.18 | 0.29 | 0.23 | 1.19 | 1.6 | 0.08 | 0.32 | 0.29 |  | 

Reference: patent publication US8927547B2, “Pyrimidine derivatives” (Noviga Research AB, priority 2010, dated 2015)
